Reference: patent publication EP0792647A1, “Porphyrins as urokinase-type plasminogen activator receptor antagonists” (BOEHRINGER MANNHEIM GMBH, priority 1996, dated 1997)
Structures can show the parent of a compound that is named as a salt. Where two headings read alike, the source gives them in different places.

How the values were obtained:
[1] = molecular target: T1, human urokinase (uPA) binding to its specific receptor (uPAR) (Homo sapiens, UniProt Q03405); assay: ELISA-Test: inhibition of uPA binding to its specific receptor (uPAR); settings: synthetic or commercially available porphyrins; for IC50: read-out: IC50 (µg/ml) ELISA (converted)
T1 sequence (Q03405 23-305 limits assumed): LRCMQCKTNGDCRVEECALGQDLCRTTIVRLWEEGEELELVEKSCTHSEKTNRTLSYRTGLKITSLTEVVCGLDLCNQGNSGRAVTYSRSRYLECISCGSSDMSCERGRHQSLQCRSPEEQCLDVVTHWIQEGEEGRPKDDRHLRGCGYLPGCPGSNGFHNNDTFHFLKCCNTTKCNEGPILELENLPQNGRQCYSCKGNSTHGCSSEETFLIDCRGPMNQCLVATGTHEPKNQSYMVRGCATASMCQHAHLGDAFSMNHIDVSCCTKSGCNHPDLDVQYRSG
Method: This test is described by P. Rettenerger et al. in Biol. Chem. Hoppe-Seyler 376, pp. 587-594 (1995). An alternate ELISA-test is described in Behrendt et al., Meth. Enzymol. 233 (1993), 207-222. • ELISA-Test: Inhibition of human urokinase (uPA) binding to its specific receptor (uPAR). The assays are performed in Microtiterplates (96 wells). The following solutions are used: • washing buffer: PBS-buffer (w/o Mg^2+Ca^2+) + 0,05% Tween 20; uPAR-solution 100 ng/ml (10 ng/well) • blocking solution 2% skimmed milk powder (Merck) in washing buffer • incubation buffer 0.5% skimmed milk powder in PBS uPA-solution 10 ng/well detection solutions (per microfilter plate): • (1) 6 ml (100 mM Tris-CI pH 7.5 + 0.15% Tween 80) + 1.5 ml (10 µg) Plasminogen in aqua bidest. • (2) 6 ml (100 mM Tris-CI pH 7.5 + 0.15% Tween 80) + 1.5 ml (7.5 mg) Chromozyme PL in aqua bidest.
The detection solution must be continously stirred.
Testing substances: the testing substances are solved in DMSO. They are used in the test system with a highest concentration of 100 µg/ml. Dissolutions are prepared using PBS.
Three controlls are performed: • a) positive controll: using 2% DMSO in PBS • b) negative controll: assay w/o receptor • c) inhibition controll: Inhibition (IC95 at 0.25 mg/ml) with Dextranesulfate (MW = 500.000)
Each well is incubated by 10 ng uPAR for 1 hour at roomtemperature (RT). After washing once each well is incubated for half an hour (37°C) with 200 µl/well blocking solution. After triple washing testing substance solution or controll solutions are added (50 µl/well and incubated for 15 min at RT. An additional 50 µl of uPA solution (10 ng in incubation buffer) are added. After 1 hour at RT a triple washing is performed.
Incubation 70 µl each of solution (1) and (2) at RT. After 20 min. a yellow color will be visible (the positive control reads an extinction of 1 after 40 min.). The detection is performed at […] (reference is […]) using a Dynatech MR 7000 ELISA reader.
To obtain the percentage of inhibition the following formula is used: % Inhibtion = 100-100* (Extinction (Test) - Extinction (Neg. contr.)/(Extinction (Pos. contr.) - Extinction (Neg. contr.)) [formula]

[2] = molecular target: Urokinase (uPA not bound to uPAR) (Homo sapiens, UniProt P00749); assay: ENZ: Urokinase-activity-assay (uPA not bound to uPAR); assay type: biochemical; settings: assay without uPAR; for IC50: read-out: IC50 (µg/ml) ENZ (converted)
Method: ENZ: Urokinase-activity-assay (uPA not bound to uPAR)
This assay is identical to the uPA/uPAR assay of example one except that no uPAR is used, i.e. no incubation of the wells with uPAR and the following washing steps is necessary.

[3] = molecular target: T2, NIH 3T3 cells transfected with a human urokinase receptor (Homo sapiens, UniProt Q03405); assay: Cellular assay: uPA binding to NIH 3T3 cells transfected with a human urokinase receptor; assay type: cell-based
T2 construct: expressed in transfected cells; host or cells: NIH 3T3 (clone NIH3T3 CH1 (15.10)), mouse fibroblasts
T2 sequence (Q03405 23-305 limits assumed): as above
Method: An enzyme test was used to detect inhibtion of urokinase activity and a cellular assay using NIH 3T3 (from ATCC) cells transfected with a human urokinase receptor was obtained.
Medium: • DMEM (MEM dulbecco/Boehringer) with NaHCO3 and 4.5 g/l Glucose
add: • 10% FCS (Seromed) • 2 mM L-Glutamine • 1 mM Na-Pyruvat • 100 U/ml Penicillin • 100 µg/ml Streptomycin • 1 µg/ml G 418 (Geneticin) • sterilize all supplements by filtration
Take a 1 mg/ml fibronectin solution (in sterile water) and dilute an appropriate aligot with sterile PBS to a final concentration of 50 µg/ml. Coat the 96-well plate with 200 µl//well. Incubate for about 45 min. at room temperature. Remove the solution carefully. The wells should not be allowed to dry, use immediately. Prepare the cells during the 45 min. of incubation with fibronectin. NIH3T3 CH1 (15.10)-cells are grown to confluency in T 175 cell-culture flasks in the above described medium. Remove the media and rinse the cells with PBS, add 2 ml of Trypsin / EDTA solution for cell detachment. Stop trypsin activity by addition of approx. 6 ml medium . Take an aliquot of the cells to determine the cellnumber and adjust the celldensity to 8 x 10^5/ml with medium. Take the fibronectin coated 96 well palate and spread 100 µl cell-suspension/well, let the cells grow to confluency over night.
Discard the medium carefully and wash the cells by addition of 200 µl medium (without supplements) / well and again discarding the medium. Add 200 µl 2% skimmed milk in medium. Incubate for 30 minutes at roomtemperatur. Wash twice with 200 µl medium (w supplements) / well carefully (to remove unbound skimmed milk). Preincubate with 50 µl testcompound diluted in medium, respectively medium only for the controls for 20 minutes; add 50 µl uPA-solution [200 ng/ml]. Incubate for 60 minutes at roomtemperature; wash carefully for 3 times with medium (200 µl/well). […] Measure at a wavelength of 405 nm (reference: 490 nm) with an ELISA-Reader. The yellow colour will appear after about 45 mins.

[4] = molecular target: T1, human urokinase (uPA) binding to its specific receptor (uPAR); assay: ELISA-Test: inhibition of uPA binding to its specific receptor (uPAR)
[5] = NIH3T3 CH1 (15.10)-cells, read-out: IC50 (µg/ml) cells (converted)

Row | Compound | IC50 [1] [nM] | IC50 [2] [nM] | other results
1 | Al Phtalocyanine Tetrasulfonate | – | – | IC50 (µg/ml) ELISA [1]: 3,7 µg/ml; IC50 (µg/ml) ENZ [2]: 2,3 µg/ml
2 | O=S(=O)(O)c1ccc(-c2c3nc(c(-c4ccc(S(=O)(=O)O)cc4)c4ccc([nH]4)c(-c4ccc(S(=O)(=O)O)cc4)c4nc(c(-c5ccc(S(=O)(=O)O)cc5)c5ccc2[nH]5)C=C4)C=C3)cc1 [meso-tetra-(4-Sulfonatophenyl)-Porphine Dihydrochlorid] | 214 | 674 | IC50 ([3]; read-out: IC50 (µg/ml) cells, NIH3T3 CH1 (15.10)-cells): 21300 nM
3 | C=Cc1c(C)c2cc3nc(c(CC(=O)O)c4[nH]c(cc5nc(cc1[nH]2)C(C)=C5CC)c(C)c4C(=O)O)[C@@H](CCC(=O)O)[C@@H]3C [Chlorin e6] | 520 | 2350 | IC50 [3, 5]: 12900 nM
4 | CCC1=C(C)c2cc3[nH]c(cc4nc(cc5[nH]c(cc1n2)c(C)c5CCC(=O)O)C(CCC(=O)O)=C4C)c(C)c3CC [Mesoporphyrin IX Dihydrochloride] | 406 | 2120 | IC50 [3]: 2770 nM
5 | N-Methyl Protoporphyrin IX | – | – | IC50 (µg/ml) ELISA [1]: 0,4 µg/ml
6 | C=CC1=C(C)C(=Cc2[nH]c(Cc3[nH]c(C=C4NC(=O)C(C)=C4C=C)c(C)c3CCC(=O)O)c(CCC(=O)O)c2C)NC1=O [Bilirubine] | – | – | inhibition at 300 µg/mL [4]: 11%
7 | Hematoporphyrin D | – | – | IC50 (µg/ml) ELISA [1]: 0,52 µg/ml; IC50 (µg/ml) ENZ [2]: 3,1 µg/ml; IC50 (µg/ml) cells ([3]; NIH3T3 CH1 (15.10)-cells): 1,4 µg/ml

Second part, led by results:

Row | IC50 [1] [nM] | IC50 [2] [nM] | Compound | other results
8 | 8400 | 4280 | CC1=C(CCC(=O)O)c2cc3[nH]c(cc4nc(cc5[nH]c(cc1n2)c(C)c5C(O)CO)C(C)=C4C(O)CO)c(C)c3CCC(=O)O (centres unmarked) [Deuteroporphyrin IX 2,4-Bis Glycol] | –
9 | 678 | 95200 | CCOC(=O)CCC1=C(C)c2cc3[nH]c(cc4nc(cc5[nH]c(cc1n2)c(C)c5CCC(=O)OCC)C(CCC(=O)OCC)=C4C)c(C)c3CCC(=O)OCC [Coproporphyrin III tetraethylester] | IC50 [3, 5]: 124000 nM
10 | 266 | 860 | O=C(O)c1ccc(-c2c3nc(c(-c4ccc(C(=O)O)cc4)c4ccc([nH]4)c(-c4ccc(C(=O)O)cc4)c4nc(c(-c5ccc(C(=O)O)cc5)c5ccc2[nH]5)C=C4)C=C3)cc1 [meso-tetra-(4-Carboxyphenyl)-Porphine] | IC50 [3, 5]: 30600 nM
11 | 1820 | 3510 | COC(=O)CCC1=C(C)c2cc3[nH]c(cc4nc(cc5[nH]c(cc1n2)c(CCC(=O)OC)c5C)C(S(=O)(=O)O)=C4C)c(S(=O)(=O)O)c3C [Deuteroporphyrin IX 2,4 Disulfonic Acid dimethylester] | –
